These results are taken from patent publication US20240382483A1, “HETEROCYCLIC EGFR INHIBITORS FOR USE IN THE TREATMENT OF CANCER” (Blueprint Medicines Corporation, priority 2021, published 2024).

The target of one test is T1, EGFR (L858R T790M C797S) (Homo sapiens, UniProt P00533, C797S/L858R/T790M).
T1 construct: purchased SignalChem E10-122VG
The test is described as follows: Biochemical EGFR inhibition assay (Caliper mobility shift), EGFR LRTMCS. The conditions noted are these: LRTMCS (PH) IC50 (nM) @ 1 mM ATP (Num), EGFR LRTMCS mutant. A digest of the protocol: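 Kinase reactions at 25 °C run to 10–20% peptide phosphorylation, stopped with 35 mM EDTA. Phosphorylated product and substrate separated electrophoretically by mobility shift. Apparent IC50 from percent activity versus log compound concentration.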

Test [1] concerns the target T2, intracellular phosphorylation of EGFR in NCI-H1975 cell line that harbors the EGFR L858R T790M mutations (Homo sapiens, UniProt P00533, L858R/T790M).
T2 construct: NCI-H1975 cell line that harbors the EGFR L858R T790M mutations (ATCC, CRL-5908); host or cells: NCI-H1975
The test is described as follows: NCI-H1975 pEGFR AlphaLISA assay. The format is cell-based. The settings on record: NCI-H1975 cells (EGFR L858R T790M), p-EGFR (Tyr1068), 4-5 hours incubation; read-out: Ext pEGFR H1975 GMean IC50 (nM) Protocol: @Pharmaron AlphaLISA (Num). The protocol:
On the next day, the test compounds and DMSO control were added into H1975 cell plate followed by incubation at 37C/5% CO2 for 4-5 hours. […] Then 5 μL of a donor bead mix was added to each well followed by overnight incubation at room temperature in dark. On the next day, the plate was read at a compatible plate reader to obtain pEGFR signal. Percent of pEGFR inhibition was plotted against log concentration of compounds to generate IC50 values.

Counter-ions that a name gives are not always drawn.

T2 sequence (P00533 25-1210 T790M/L858R): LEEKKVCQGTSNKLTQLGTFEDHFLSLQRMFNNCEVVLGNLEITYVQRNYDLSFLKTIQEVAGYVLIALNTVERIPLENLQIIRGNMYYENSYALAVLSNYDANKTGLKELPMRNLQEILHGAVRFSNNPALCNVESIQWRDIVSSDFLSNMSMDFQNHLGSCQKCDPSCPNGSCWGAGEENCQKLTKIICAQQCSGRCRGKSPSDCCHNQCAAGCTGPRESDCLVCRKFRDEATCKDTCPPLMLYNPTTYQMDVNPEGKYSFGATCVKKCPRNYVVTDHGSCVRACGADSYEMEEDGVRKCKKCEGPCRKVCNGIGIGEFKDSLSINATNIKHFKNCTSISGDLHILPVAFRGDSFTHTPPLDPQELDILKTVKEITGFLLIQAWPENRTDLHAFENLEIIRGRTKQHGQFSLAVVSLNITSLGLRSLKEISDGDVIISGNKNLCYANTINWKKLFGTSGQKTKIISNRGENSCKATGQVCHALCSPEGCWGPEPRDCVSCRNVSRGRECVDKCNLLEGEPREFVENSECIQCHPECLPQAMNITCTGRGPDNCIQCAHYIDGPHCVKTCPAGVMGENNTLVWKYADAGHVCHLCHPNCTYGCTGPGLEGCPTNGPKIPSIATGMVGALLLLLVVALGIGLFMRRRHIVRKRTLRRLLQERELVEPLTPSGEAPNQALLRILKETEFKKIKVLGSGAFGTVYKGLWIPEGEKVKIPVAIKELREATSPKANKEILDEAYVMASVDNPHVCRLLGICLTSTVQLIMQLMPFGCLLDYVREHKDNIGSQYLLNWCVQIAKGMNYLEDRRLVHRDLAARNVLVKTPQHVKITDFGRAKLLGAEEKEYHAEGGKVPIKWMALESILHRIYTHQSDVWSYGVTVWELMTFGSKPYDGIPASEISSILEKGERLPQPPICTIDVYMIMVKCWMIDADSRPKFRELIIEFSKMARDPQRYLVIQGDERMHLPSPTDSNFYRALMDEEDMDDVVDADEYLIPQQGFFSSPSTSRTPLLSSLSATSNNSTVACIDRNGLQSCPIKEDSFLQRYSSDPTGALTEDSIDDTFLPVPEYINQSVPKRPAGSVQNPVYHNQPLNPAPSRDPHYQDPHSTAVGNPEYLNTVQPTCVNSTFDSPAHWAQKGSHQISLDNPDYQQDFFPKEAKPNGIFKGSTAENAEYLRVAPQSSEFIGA
T1 sequence (P00533 25-1210 T790M/C797S/L858R): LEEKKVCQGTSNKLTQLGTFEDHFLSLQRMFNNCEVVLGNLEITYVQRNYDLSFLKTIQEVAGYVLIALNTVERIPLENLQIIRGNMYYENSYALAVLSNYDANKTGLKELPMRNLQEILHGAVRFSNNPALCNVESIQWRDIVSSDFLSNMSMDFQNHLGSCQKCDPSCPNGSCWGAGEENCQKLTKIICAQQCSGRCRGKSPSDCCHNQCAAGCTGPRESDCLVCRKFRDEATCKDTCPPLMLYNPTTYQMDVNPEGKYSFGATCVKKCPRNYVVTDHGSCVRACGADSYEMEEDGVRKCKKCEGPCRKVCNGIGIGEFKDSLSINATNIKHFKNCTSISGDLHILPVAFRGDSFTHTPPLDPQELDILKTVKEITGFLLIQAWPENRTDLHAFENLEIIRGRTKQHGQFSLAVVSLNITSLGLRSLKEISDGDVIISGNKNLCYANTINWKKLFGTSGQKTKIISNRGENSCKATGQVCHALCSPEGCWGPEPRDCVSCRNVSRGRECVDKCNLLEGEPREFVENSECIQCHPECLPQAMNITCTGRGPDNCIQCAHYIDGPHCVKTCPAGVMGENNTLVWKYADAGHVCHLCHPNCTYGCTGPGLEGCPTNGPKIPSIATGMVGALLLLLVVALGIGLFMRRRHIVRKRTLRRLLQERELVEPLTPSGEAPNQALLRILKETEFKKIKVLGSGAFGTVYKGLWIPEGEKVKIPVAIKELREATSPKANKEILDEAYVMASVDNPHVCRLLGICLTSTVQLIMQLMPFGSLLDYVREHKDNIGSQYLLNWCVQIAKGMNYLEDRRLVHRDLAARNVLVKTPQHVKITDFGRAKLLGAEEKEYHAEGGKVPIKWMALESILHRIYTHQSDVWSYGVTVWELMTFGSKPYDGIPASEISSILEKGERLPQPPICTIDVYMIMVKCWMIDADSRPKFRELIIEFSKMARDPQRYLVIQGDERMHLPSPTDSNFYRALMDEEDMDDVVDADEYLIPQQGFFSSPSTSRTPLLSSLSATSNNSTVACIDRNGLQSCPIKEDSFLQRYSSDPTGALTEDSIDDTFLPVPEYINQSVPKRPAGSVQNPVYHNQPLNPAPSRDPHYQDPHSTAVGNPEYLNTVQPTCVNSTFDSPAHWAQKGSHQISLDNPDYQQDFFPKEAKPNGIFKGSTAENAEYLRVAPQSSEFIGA

As for `Cc1nc(-c2cnc(C(C)C)c3cc(Nc4ccnc(N5CC[C@@H](O)[C@@](C)(F)C5)n4)ncc23)no1` [Example 8, (3S,4R)-3-fluoro-1-(4-((5-isopropyl-8-(5-methyl-1,2,4-oxadiazol-3-yl)-2,6-naphthyridin-3-yl)amino)pyrimidin-2-yl)-3-methylpiperidin-4-ol], the IC50 at EGFR (L858R T790M C797S) was 20 to 30 nM; in test [1], greater than 50 nM.
As to `CC(C)c1cnc(N2C[C@H](OC(F)F)[C@H]2C)c2cnc(Nc3ccnc(N4CC[C@@H](O)[C@@](C)(F)C4)n3)cc12` [Example 109, (3S,4R)-1-(4-((8-((2R,3S)-3-(difluoromethoxy)-2-methylazetidin-1-yl)-5-isopropyl-2,7-naphthyridin-3-yl)amino)pyrimidin-2-yl)-3-fluoro-3-methylpiperidin-4-ol], the IC50 fell in the range of 20 to 30 nM at EGFR (L858R T790M C797S) and 10 to 20 nM in test [1].
Turning to `CC(C)c1cnc(N2CC(CO)C2)c2cnc(Nc3ccnc(N4CC[C@@H](O)[C@@](C)(F)C4)n3)cc12` [Example 61, (3S,4R)-3-fluoro-1-(4-((8-(3-(hydroxymethyl)azetidin-1-yl)-5-isopropyl-2,7-naphthyridin-3-yl)amino)pyrimidin-2-yl)-3-methylpiperidin-4-ol], the IC50 at EGFR (L858R T790M C797S) was less than 15 nM; in test [1] it was 30 to 50 nM.
As for `C[C@@H]1CCN1c1ncc([C@@H](C)OCC2COC2)c2cc(Nc3ccnc(N4CC[C@@H](O)[C@@](C)(F)C4)n3)ncc12` (single isomer, unassigned) [Example 183, (3S,4R)-3-fluoro-3-methyl-1-(4-((8-((R)-2-methylazetidin-1-yl)-5-((R)-1-(oxetan-3-ylmethoxy)ethyl)-2,7-naphthyridin-3-yl)amino)pyrimidin-2-yl)piperidin-4-ol or (3S,4R)-3-fluoro-3-methyl-1-(4-((8-((R)-2-methylazetidin-1-yl)-5-((S)-1-(oxetan-3-ylmethoxy)ethyl)-2,7-naphthyridin-3-yl)amino)pyrimidin-2-yl)piperidin-4-ol], the IC50 was 30 to 100 nM on EGFR (L858R T790M C797S) and greater than 50 nM in test [1].
For `CC(C)c1cnc(-c2ccn(C3COC3)n2)c2cnc(Nc3ccnc(N4CC[C@@H](O)[C@@](C)(F)C4)n3)cc12` [Example 21, (3S,4R)-3-fluoro-1-(4-((5-isopropyl-8-(1-(oxetan-3-yl)-1H-pyrazol-3-yl)-2,7-naphthyridin-3-yl)amino)pyrimidin-2-yl)-3-methylpiperidin-4-ol], the IC50 was less than 15 nM on EGFR (L858R T790M C797S) and greater than 50 nM in test [1].
`CC(C)c1cnc(N2C[C@H](O)[C@H]2C)c2cnc(Nc3ccnc(N4CC[C@@H](O)[C@@H](F)C4)n3)cc12` [Example 154, (3S,4R)-3-fluoro-1-(4-((8-((2R,3S)-3-hydroxy-2-methylazetidin-1-yl)-5-isopropyl-2,7-naphthyridin-3-yl)amino)pyrimidin-2-yl)piperidin-4-ol]: the IC50 is less than 15 nM on EGFR (L858R T790M C797S) and 10 to 20 nM in test [1].
For `CO[C@@H]1CCN(c2nccc(Nc3cc4c(C(C)C)ncc(N5C[C@H](O)[C@H]5C)c4cn3)n2)C[C@@H]1O` (single isomer, unassigned) [Example 119, (3S,4R)-1-(4-((8-((2R,3S)-3-hydroxy-2-methylazetidin-1-yl)-5-isopropyl-2,6-naphthyridin-3-yl)amino)pyrimidin-2-yl)-4-methoxypiperidin-3-ol or (3R,4S)-1-(4-((8-((2R,3S)-3-hydroxy-2-methylazetidin-1-yl)-5-isopropyl-2,6-naphthyridin-3-yl)amino)pyrimidin-2-yl)-4-methoxypiperidin-3-ol], the IC50 on EGFR (L858R T790M C797S) is 20 to 30 nM; in test [1], greater than 50 nM.
As for `CC(C)c1cnc(N2C[C@@H](F)[C@H](F)C2)c2cnc(Nc3ccnc(N4CC[C@@H](O)[C@@](C)(F)C4)n3)cc12` (single isomer, unassigned) [Example 60, (3S,4R)-1-(4-((8-((3R,4R)-3,4-difluoropyrrolidin-1-yl)-5-isopropyl-2,7-naphthyridin-3-yl)amino)pyrimidin-2-yl)-3-fluoro-3-methylpiperidin-4-ol or (3S,4R)-1-(4-((8-((3S,4S)-3,4-difluoropyrrolidin-1-yl)-5-isopropyl-2,7-naphthyridin-3-yl)amino)pyrimidin-2-yl)-3-fluoro-3-methylpiperidin-4-ol], the results for the IC50 (on EGFR (L858R T790M C797S); in test [1]) were less than 15 nM and 10 to 20 nM, respectively.
As for `CO[C@@H]1CCN(c2nccc(Nc3cc4c(C(C)C)cnc(N5CCC56CN(C)C6)c4cn3)n2)C[C@@H]1F` [Example 41, N-(2-((3S,4R)-3-fluoro-4-methoxypiperidin-1-yl)pyrimidin-4-yl)-5-isopropyl-8-(6-methyl-1,6-diazaspiro[3.3]heptan-1-yl)-2,7-naphthyridin-3-amine], the IC50 was less than 15 nM on EGFR (L858R T790M C797S) and 30 to 50 nM in test [1].
With `CC(C)c1cnc(-c2cn(C)nn2)c2cnc(Nc3ccnc(N4CC[C@@H](O)[C@@](C)(F)C4)n3)cc12` [Example 10, (3S,4R)-3-fluoro-1-(4-((5-isopropyl-8-(1-methyl-1H-1,2,3-triazol-4-yl)-2,7-naphthyridin-3-yl)amino)pyrimidin-2-yl)-3-methylpiperidin-4-ol], the IC50 at EGFR (L858R T790M C797S) was less than 15 nM; in test [1] it was 10 to 20 nM.
Turning to `CC(C)c1cnc(N2CC(n3ccnn3)C2)c2cnc(Nc3ccnc(N4CC[C@@H](O)[C@@](C)(F)C4)n3)cc12` [Example 89, (3S,4R)-1-(4-((8-(3-(1H-1,2,3-triazol-1-yl)azetidin-1-yl)-5-isopropyl-2,7-naphthyridin-3-yl)amino)pyrimidin-2-yl)-3-fluoro-3-methylpiperidin-4-ol], the IC50 on EGFR (L858R T790M C797S) is less than 15 nM; in test [1], less than 10 nM.
`CC(C)c1cnc(N2C[C@H](O)[C@H]2C)c2cnc(Nc3ccnc(N4CC[C@@H](O)C5(CC5)C4)n3)cc12` (single isomer, unassigned) [Example 169, (R)-5-(4-((8-((2R,3S)-3-hydroxy-2-methylazetidin-1-yl)-5-isopropyl-2,7-naphthyridin-3-yl)amino)pyrimidin-2-yl)-5-azaspiro[2.5]octan-8-ol or (S)-5-(4-((8-((2R,3S)-3-hydroxy-2-methylazetidin-1-yl)-5-isopropyl-2,7-naphthyridin-3-yl)amino)pyrimidin-2-yl)-5-azaspiro[2.5]octan-8-ol]: the IC50 on EGFR (L858R T790M C797S) is less than 15 nM; in test [1], 30 to 50 nM.
On to `CC(C)c1cnc(N2CCC23CN(C)C3)c2cnc(Nc3ccnc(N4CC[C@@H](O)[C@@](C)(F)C4)n3)cc12` [Example 192, (3S,4R)-3-fluoro-1-(4-((5-isopropyl-8-(6-methyl-1,6-diazaspiro[3.3]heptan-1-yl)-2,7-naphthyridin-3-yl)amino)pyrimidin-2-yl)-3-methylpiperidin-4-ol trifluoroacetate], for which the IC50 on EGFR (L858R T790M C797S) is less than 15 nM; in test [1] it was 30 to 50 nM.
For `CC(C)c1cnc(N2CC[C@H]2CO)c2cnc(Nc3ccnc(N4CC[C@@H](O)[C@@](C)(F)C4)n3)cc12` [Example 52, (3S,4R)-3-fluoro-1-(4-((8-((S)-2-(hydroxymethyl)azetidin-1-yl)-5-isopropyl-2,7-naphthyridin-3-yl)amino)pyrimidin-2-yl)-3-methylpiperidin-4-ol], in that order: less than 15 nM and less than 10 nM.
Take `CO[C@H]1CCN(c2nccc(Nc3cc4c(C(C)C)ccc(N5CC[C@H]5CN)c4cn3)n2)C[C@H]1F` [Example 39, 8-((S)-2-(aminomethyl)azetidin-1-yl)-N-(2-((3R,4S)-3-fluoro-4-methoxypiperidin-1-yl)pyrimidin-4-yl)-5-isopropylisoquinolin-3-amine]: the IC50 was less than 15 nM on EGFR (L858R T790M C797S) and greater than 50 nM in test [1].
As to `CO[C@H]1CN(c2ncc([C@@H](C)CO)c3cc(Nc4ccnc(N5CC[C@@H](O)[C@@](C)(F)C5)n4)ncc23)[C@@H]1C` (single isomer, unassigned) [Example 211, (3S,4R)-3-fluoro-1-(4-((5-((R)-1-hydroxypropan-2-yl)-8-((2R,3S)-3-methoxy-2-methylazetidin-1-yl)-2,7-naphthyridin-3-yl)amino)pyrimidin-2-yl)-3-methylpiperidin-4-ol or (3S,4R)-3-fluoro-1-(4-((5-((S)-1-hydroxypropan-2-yl)-8-((2R,3S)-3-methoxy-2-methylazetidin-1-yl)-2,7-naphthyridin-3-yl)amino)pyrimidin-2-yl)-3-methylpiperidin-4-ol], the results for the IC50 (on EGFR (L858R T790M C797S); in test [1]) were 30 to 100 nM and greater than 50 nM, respectively.
For `CC(C)c1ccc(N2CC(Cn3ccnn3)C2)c2cnc(Nc3ccnc(N4CC[C@](C)(O)[C@H](F)C4)n3)cc12` [Example 40, (3R,4S)-1-(4-((8-(3-((1H-1,2,3-triazol-1-yl)methyl)azetidin-1-yl)-5-isopropylisoquinolin-3-yl)amino)pyrimidin-2-yl)-3-fluoro-4-methylpiperidin-4-ol], in that order: less than 15 nM and 20 to 30 nM.
On to `CC(C)c1cnc(N2CC[C@H]2C)c2cnc(Nc3ccnc(N4CCC(O)(CO)CC4)n3)cc12` [Example 131, (R)-4-(hydroxymethyl)-1-(4-((5-isopropyl-8-(2-methylazetidin-1-yl)-2,7-naphthyridin-3-yl)amino)pyrimidin-2-yl)piperidin-4-ol], for which the values for the concentration for half-maximal inhibition (IC50) (at EGFR (L858R T790M C797S); in test [1]) were 15 to 20 nM and greater than 50 nM, respectively.
